# Where two headings read alike, the source gives them in different places.
# Experiments:
# [1] = biological target: GluN2B glutamate receptors (Homo sapiens (Human), UniProt Q05586+Q13224); assay: Whole-cell patch clamp of mammalian cells (Ionworks Barracuda), positive allosteric modulation, GluN2B; type: cell-based; details: for Emax: read-out: Avg Emax 2B (%)
# Description: (§1) The measurements were performed using Ion Works Barracuda platform following this procedure:
# (§2) Electrophysiological Procedures:
# (§3) • a) Intracellular solution (mM): 50 mM CsCl, 90 mM CsF, 2 mM MgCl2, 5 mM EGTA, 10 mM HEPES. Adjust to pH 7.2 with CsOH. • b) Extracellular solution, HB-PS (composition in mM): NaCl, 137; KCl, 1.0; CaCl2), 5; HEPES, 10; Glucose, 10; pH adjusted to 7.4 with NaOH (refrigerated until use). • c) Holding potential: −70 mV, potential during agonist/PAM application: −40 mV. Recording Procedure: • a) Extracellular buffer will be loaded into the PPC plate wells (11 μL per well). Cell suspension will be pipetted into the wells (9 μL per well) of the PPC planar electrode. • b) Whole-cell recording configuration will be established via patch perforation with membrane currents recorded by on-board patch clamp amplifiers. • c) Two recordings (scans) will be performed. First, during pre-application of test article alone (duration of pre-application—[…]) and second, during test articles and agonist (EC20 L-glutamate and 30 μM glycine) co-application to detect positive modulatory effects of the test article. […] Potentiating Effect of Positive Allosteric Modulators (PAM) on the Channel
# (§4) PAM concentration-response data will be fitted to an equation of the form: % Activation=% L-glutamate EC20+{(% MAX−% L-glutamate EC20)/[1+([Test]/EC50)^N]}, where [Test] will be the concentration of PAM (test article), EC50 will be the concentration of PAM producing half-maximal activation, N will be the Hill coefficient, % L-glutamate EC20 will be the percentage of the current Elicited with L-glutamate EC20, % MAX is the percentage of the current activated with the highest dose of PAM co-admitted with L-glutamate EC20 and % Activation will be the percentage of the current elicited with L-glutamate EC10-30 at each PAM concentration. The maximal amplitude of the evoked currents are measured and defined as Peak Current Amplitude (PCA).
# [2] = biological target: GlunN1/GluN2A glutamate receptors (Homo sapiens (Human), UniProt Q05586+Q12879); assay: Whole-cell patch clamp of mammalian cells (Ionworks Barracuda), positive allosteric modulation, GluN1/GluN2A; type: cell-based
# Description: as §1, §2, §3, §4
# [3] = % potentiation of current elicited with EC20 L-glutamate and 30 μM glycine
# [4] = co-application with EC20 L-glutamate and 30 μM glycine, 8-point concentration-response, read-out: Avg EC50 2B
# [5] = HEK293 cells, % potentiation of current elicited with EC20 L-glutamate and 30 μM glycine, read-out: Avg Emax 2A (%)
# [6] = HEK293 cells, co-application with EC20 L-glutamate and 30 μM glycine, 8-point concentration-response, read-out: Avg EC50 2A
# [7] = HEK293, read-out: Avg Emax 2A (%)
# Sequence of GlunN1/GluN2A glutamate receptors (Q12879 23-1464, other chains not shown): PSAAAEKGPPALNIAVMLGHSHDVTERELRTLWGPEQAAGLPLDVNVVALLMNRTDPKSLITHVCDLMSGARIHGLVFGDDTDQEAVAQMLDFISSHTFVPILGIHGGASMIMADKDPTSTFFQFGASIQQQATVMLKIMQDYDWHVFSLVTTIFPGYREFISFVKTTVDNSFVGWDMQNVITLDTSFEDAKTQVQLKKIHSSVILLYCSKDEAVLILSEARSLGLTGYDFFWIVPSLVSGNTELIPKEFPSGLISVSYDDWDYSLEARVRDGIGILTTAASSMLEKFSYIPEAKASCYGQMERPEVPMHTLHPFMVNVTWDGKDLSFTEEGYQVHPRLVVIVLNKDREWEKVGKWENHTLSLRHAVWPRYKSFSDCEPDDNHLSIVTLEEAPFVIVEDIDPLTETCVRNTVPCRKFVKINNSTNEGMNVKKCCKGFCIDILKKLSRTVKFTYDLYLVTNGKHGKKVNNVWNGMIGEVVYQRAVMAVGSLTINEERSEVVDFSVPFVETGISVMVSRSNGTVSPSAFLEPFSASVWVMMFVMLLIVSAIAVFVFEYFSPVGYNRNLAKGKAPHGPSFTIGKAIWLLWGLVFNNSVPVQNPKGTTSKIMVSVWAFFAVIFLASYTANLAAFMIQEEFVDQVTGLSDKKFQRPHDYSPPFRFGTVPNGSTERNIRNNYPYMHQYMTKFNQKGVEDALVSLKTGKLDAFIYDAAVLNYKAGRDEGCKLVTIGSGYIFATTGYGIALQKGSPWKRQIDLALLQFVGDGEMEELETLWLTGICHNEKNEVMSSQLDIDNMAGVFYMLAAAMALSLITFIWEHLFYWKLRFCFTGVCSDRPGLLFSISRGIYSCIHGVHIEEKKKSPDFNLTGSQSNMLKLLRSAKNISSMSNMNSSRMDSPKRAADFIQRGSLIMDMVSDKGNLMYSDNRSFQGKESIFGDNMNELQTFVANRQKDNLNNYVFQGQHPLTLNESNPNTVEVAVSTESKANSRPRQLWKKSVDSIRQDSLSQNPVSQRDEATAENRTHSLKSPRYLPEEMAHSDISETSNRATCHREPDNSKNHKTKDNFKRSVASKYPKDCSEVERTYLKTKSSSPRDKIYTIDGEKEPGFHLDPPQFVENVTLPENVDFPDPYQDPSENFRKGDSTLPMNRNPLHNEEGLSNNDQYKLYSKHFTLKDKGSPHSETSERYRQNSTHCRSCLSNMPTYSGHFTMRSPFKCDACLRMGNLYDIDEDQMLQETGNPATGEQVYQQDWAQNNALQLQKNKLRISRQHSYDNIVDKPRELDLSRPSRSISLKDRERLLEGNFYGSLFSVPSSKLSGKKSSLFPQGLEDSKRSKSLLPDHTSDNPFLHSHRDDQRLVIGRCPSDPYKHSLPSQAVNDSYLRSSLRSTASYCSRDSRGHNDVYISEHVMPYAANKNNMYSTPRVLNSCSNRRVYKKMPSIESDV
# Sequence of GluN2B glutamate receptors (Q13224 27-1484, other chains not shown): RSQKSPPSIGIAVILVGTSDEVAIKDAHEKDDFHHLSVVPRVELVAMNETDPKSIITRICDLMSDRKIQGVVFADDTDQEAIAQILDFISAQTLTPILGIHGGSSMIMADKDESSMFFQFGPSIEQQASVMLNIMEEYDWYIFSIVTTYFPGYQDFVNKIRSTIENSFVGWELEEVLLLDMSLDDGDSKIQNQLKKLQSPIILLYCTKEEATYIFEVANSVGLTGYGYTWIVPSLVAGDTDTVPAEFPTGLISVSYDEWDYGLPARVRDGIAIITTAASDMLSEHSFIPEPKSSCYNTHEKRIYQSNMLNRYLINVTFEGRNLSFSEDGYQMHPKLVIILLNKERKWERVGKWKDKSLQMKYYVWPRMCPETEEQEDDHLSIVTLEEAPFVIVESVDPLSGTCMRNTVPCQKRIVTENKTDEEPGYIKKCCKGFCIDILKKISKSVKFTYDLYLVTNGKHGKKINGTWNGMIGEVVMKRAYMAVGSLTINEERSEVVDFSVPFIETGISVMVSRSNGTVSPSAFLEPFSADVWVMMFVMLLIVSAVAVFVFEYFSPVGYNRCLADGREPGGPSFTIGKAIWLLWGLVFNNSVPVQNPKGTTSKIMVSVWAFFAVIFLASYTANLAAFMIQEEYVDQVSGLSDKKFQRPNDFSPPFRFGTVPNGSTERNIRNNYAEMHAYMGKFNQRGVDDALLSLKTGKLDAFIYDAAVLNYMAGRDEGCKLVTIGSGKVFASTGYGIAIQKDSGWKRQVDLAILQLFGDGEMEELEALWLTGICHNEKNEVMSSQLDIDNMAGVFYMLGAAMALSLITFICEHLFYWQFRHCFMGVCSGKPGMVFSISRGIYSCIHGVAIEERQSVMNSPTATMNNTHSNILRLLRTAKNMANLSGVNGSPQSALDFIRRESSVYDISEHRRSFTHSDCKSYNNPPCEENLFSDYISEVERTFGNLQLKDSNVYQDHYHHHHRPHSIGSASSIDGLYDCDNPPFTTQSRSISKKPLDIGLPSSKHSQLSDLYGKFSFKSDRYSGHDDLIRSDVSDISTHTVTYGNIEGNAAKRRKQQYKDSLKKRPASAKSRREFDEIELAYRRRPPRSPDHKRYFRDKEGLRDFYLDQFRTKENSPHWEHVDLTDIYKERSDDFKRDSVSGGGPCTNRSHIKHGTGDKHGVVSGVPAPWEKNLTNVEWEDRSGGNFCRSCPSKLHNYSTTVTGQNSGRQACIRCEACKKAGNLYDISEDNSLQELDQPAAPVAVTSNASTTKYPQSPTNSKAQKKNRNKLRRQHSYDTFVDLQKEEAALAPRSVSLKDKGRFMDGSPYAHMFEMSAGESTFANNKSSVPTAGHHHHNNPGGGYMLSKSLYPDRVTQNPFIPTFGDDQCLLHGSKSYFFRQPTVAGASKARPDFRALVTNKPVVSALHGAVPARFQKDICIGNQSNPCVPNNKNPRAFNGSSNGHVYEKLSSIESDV
Structure (SMILES),"Emax [1, 3]","EC50 [1, 4]","Emax [2, 5]","EC50 [2, 6]",EC50 [1],EC50 [2],Emax [1],"Emax [2, 7]"
C[C@H](CCC[C@@H](O)C(F)(F)F)[C@H]1CC[C@H]2[C@@H]3CC[C@H]4C[C@](O)(C(F)(F)F)CC[C@]4(C)[C@H]3CC[C@]12C [Compound 3114],294%,244 nM,318%,382 nM,–,–,–,–
CC(C)[C@H](O)CC[C@@H](C)[C@H]1CC[C@H]2[C@@H]3CC[C@H]4C[C@](O)(C(F)(F)F)CC[C@]4(C)[C@H]3CC[C@]12C [Compound 2B],965%,–,625%,–,143 nM,131 nM,–,–
CCC(O)CCC[C@@H](C)[C@H]1CC[C@H]2[C@@H]3CC=C4C[C@](O)(CC)CC[C@@H]4[C@H]3CC[C@]12C (stereo partly shown) [Compound 10673],–,–,–,–,–,–,214%,216%
CC[C@@H](O)CC[C@@H](C)[C@H]1CC[C@H]2[C@@H]3CC[C@H]4C[C@](O)(CC)CC[C@@H]4[C@H]3CC[C@]12C [Compound 9142],–,–,–,–,70.4 nM,> 10000 nM,44.8%,41.6%
"CC[C@]1(O)CC[C@@]2(C)C(=CC[C@H]3[C@@H]4CC[C@H]([C@H](C)CC[C@@H](O)c5cccc(F)c5)[C@@]4(C)CC[C@@H]32)C1 (single isomer, unassigned) [Compound 6895]",354%,–,241%,–,329 nM,174 nM,–,–
C[C@H](CCC1(O)CCC(OC(F)F)CC1)[C@H]1CC[C@H]2[C@@H]3CC[C@H]4C[C@](O)(C(F)(F)F)CC[C@]4(C)[C@H]3CC[C@]12C (stereo partly shown) [Compound 5131],–,–,–,–,–,–,39%,52.9%
CC[C@]1(O)CC[C@H]2[C@@H](CC[C@@H]3[C@@H]2CC[C@]2(C)[C@@H]([C@H](C)CCCO)CC[C@@H]32)C1 [Compound 376],59.8%,–,49.9%,–,> 10000 nM,> 10000 nM,–,–
CC[C@]1(O)CC[C@H]2C(=CC[C@@H]3[C@@H]2CC[C@]2(C)[C@@H]([C@H](C)CCCC4(O)CC4)CC[C@@H]32)C1 [Compound 10790],246%,271 nM,160%,204 nM,–,–,–,–
C[C@H](CCC[C@@H](C)O)[C@H]1CC[C@H]2[C@@H]3CC[C@H]4C[C@](O)(C(F)(F)F)CC[C@]4(C)[C@H]3CC[C@]12C [Compound 112],151%,–,92.6%,–,–,–,–,–
CC[C@H]1CC[C@](O)(CC[C@@H](C)[C@H]2CC[C@H]3[C@@H]4CC[C@H]5C[C@](O)(C(F)(F)F)CC[C@]5(C)[C@H]4CC[C@]23C)CC1 [Compound 4476],10.4%,–,-3.3%,–,> 10000 nM,> 10000 nM,–,–
"CC[C@]1(O)CC[C@@]2(C)C(=CC[C@H]3[C@@H]4CC[C@H]([C@H](C)CC[C@H](O)c5ccc(C#N)cc5)[C@@]4(C)CC[C@@H]32)C1 (single isomer, unassigned) [Compound 6681]",165%,–,172%,–,360 nM,365 nM,–,–
CC[C@]1(O)CC[C@@]2(C)C(=CC[C@H]3[C@@H]4CC[C@H]([C@H](C)CC[C@H](O)c5ccccc5C#N)[C@@]4(C)CC[C@@H]32)C1 [Compound 7300],46.9%,–,37.5%,–,> 10000 nM,> 10000 nM,–,–
CC[C@]1(O)CC[C@@]2(C)[C@@H](CC[C@@H]3[C@@H]2CC[C@]2(C)[C@@H]([C@H](C)CC[C@@H](O)c4ccccc4)CC[C@@H]32)C1 [Compound 6571],241%,–,158%,–,267 nM,190 nM,–,–
CC[C@]1(O)CC[C@H]2C(=CC[C@@H]3[C@@H]2CC[C@]2(C)[C@@H]([C@H](C)CCC[C@H](O)C(C)C)CC[C@@H]32)C1 [Compound 10115],226%,458 nM,192%,556 nM,–,–,–,–
CC[C@]1(O)CC[C@@]2(C)C(=CC[C@H]3[C@@H]4CC[C@H]([C@H](C)CC[C@H](O)c5ccccc5)[C@@]4(C)CC[C@@H]32)C1 [Compound 961],97.4%,–,138%,–,180 nM,617 nM,–,–
C[C@H](CC[C@@H](O)C(C)(C)C)[C@H]1CC[C@H]2[C@@H]3CC=C4C[C@](O)(C(F)(F)F)CC[C@]4(C)[C@H]3CC[C@]12C [Compound 3382],–,–,–,–,126 nM,67.6 nM,–,–
C[C@H](CCC(O)C(F)(F)F)[C@H]1CC[C@H]2[C@@H]3CC[C@H]4C[C@](O)(C(F)(F)F)CC[C@]4(C)[C@H]3CC[C@]12C (stereo partly shown) [Compound 2918],506%,–,532%,–,339 nM,298 nM,–,–
CC[C@]1(O)CC[C@@]2(C)C(=CC[C@H]3[C@@H]4CC[C@H]([C@H](C)CC[C@@H](O)c5ccccn5)[C@@]4(C)CC[C@@H]32)C1 [Compound 6348],133%,–,79.7%,–,663 nM,260 nM,–,–
CC[C@]1(O)CC[C@H]2C(=CC[C@@H]3[C@@H]2CC[C@]2(C)[C@@H]([C@H](C)CCC(O)C(C)(C)C)CC[C@@H]32)C1 (stereo partly shown) [Compound 8361],–,–,–,–,136 nM,87 nM,309%,252%
C[C@H](CCC(C)(C)O)[C@H]1CC[C@H]2[C@@H]3CC=C4C[C@](O)(C(F)(F)F)CC[C@]4(C)[C@H]3CC[C@]12C [Compound 1839],568%,–,493%,295 nM,–,–,–,–
CC[C@]1(O)CC[C@@]2(C)C(=CC[C@H]3[C@@H]4CC[C@H]([C@H](C)CCC(O)c5ccccc5)[C@@]4(C)CC[C@@H]32)C1 (stereo partly shown) [Compound 761],197%,–,302%,–,249 nM,476 nM,–,–
C[C@H](CCC1(O)CCC2(CC1)COC2)[C@H]1CC[C@H]2[C@@H]3CC[C@H]4C[C@](O)(C(F)(F)F)CC[C@]4(C)[C@H]3CC[C@]12C [Compound 5009],14.5%,–,27.5%,–,> 10000 nM,> 10000 nM,–,–
CC(C)[C@H](O)CC[C@@H](C)[C@H]1CC[C@H]2[C@@H]3CC[C@H]4C[C@@](C)(O)CC[C@@H]4[C@H]3CC[C@]12C [Compound 1B75],233%,–,279%,–,–,–,–,–
COC[C@H]1CC[C@@](O)(CC[C@@H](C)[C@H]2CC[C@H]3[C@@H]4CC[C@H]5C[C@](O)(C(F)(F)F)CC[C@]5(C)[C@H]4CC[C@]23C)CC1 [Compound 4656],122%,–,134%,–,2160 nM,1600 nM,–,–
CC[C@]1(O)CC[C@H]2[C@@H](CC[C@@H]3[C@@H]2CC[C@]2(C)[C@@H]([C@H](C)CC[C@@H](O)C(C)C)CC[C@@H]32)C1 [Compound 4B77],320%,298 nM,467%,467 nM,–,–,–,–
CC[C@]1(O)CC[C@H]2C(=CC[C@@H]3[C@@H]2CC[C@]2(C)[C@@H]([C@H](C)CCC[C@@H](O)C(C)C)CC[C@@H]32)C1 [Compound 10114],179%,–,146%,–,–,–,–,–
C[C@H](CCC(O)C1CCOCC1)[C@H]1CC[C@H]2[C@@H]3CC[C@H]4C[C@](O)(C(F)(F)F)CC[C@]4(C)[C@H]3CC[C@]12C (stereo partly shown) [Compound 9],271%,–,181%,–,234 nM,317 nM,–,–
CC[C@]1(O)CC[C@@]2(C)[C@@H](CC[C@@H]3[C@@H]2CC[C@]2(C)[C@@H]([C@H](C)CC[C@@H](O)c4cccnc4)CC[C@@H]32)C1 [Compound 6755],44.2%,–,22.8%,–,> 10000 nM,> 10000 nM,–,–
C[C@H](CC[C@H](O)C1CCCCC1)[C@H]1CC[C@H]2[C@@H]3CC[C@H]4C[C@](O)(C(F)(F)F)CC[C@]4(C)[C@H]3CC[C@]12C [Compound 4155],198%,–,164%,–,612 nM,442 nM,–,–

# Reference: patent US11149054B2, “Oxysterols and methods of use thereof” (Sage Therapeutics, Inc., priority 2016, dated 2021)
